According to patent US20260076986A1 (priority 2022, published 2026):

Legend:
[1] = system: mild and moderate AD patients; settings: cited from earlier work
[2] = molecular target: T1, amyloid beta (Homo sapiens, UniProt P05067); experiment: in vitro formation and breakdown of amyloid beta oligomers, aggregates and fibrils; assay type: biochemical; settings: approximately
T1 construct: cleaved by alpha and beta secretases, producing free amyloid beta peptide
Text: Scyllo-inositol is a natural sugar found in many nutrients, including coconut, carrots, grapes and citrus fruits.
Thus, our target concentration in the CSF (which we assume to be similar to the interstitial fluid in the brain) is approximately 2-5 ugm/ml.

[3] = system: rats; settings: rat, in vivo, 6 months
[4] = system: neurons; settings: cited from earlier work
[5] = system: hippocampal slices; settings: infusion in rat brain, toxic amyloid beta oligomers; cited from earlier work
[6] = system: dogs
[7] = clinical safety review of scyllo-inositol (ELND005) studies; assay type: in vivo, human; settings: clinical studies of up to 2.5 years
Description: In the completed studies, […] have been exposed to at least a single dose of ELND005 (161 unique healthy subjects in Phase 1 studies, 306 unique patients in Phase 2 studies). The 306 Mild and Moderate AD patients were treated with ELND005 doses of up to 2000 mg BID. In the completed Phase 2 studies, the duration of treatment was up to 2.5 years with the 250-mg BID dose. The Phase 2 AD studies provided a total of 370.2 patient-years of exposure at any dose. At the dose of 250 mg BID, there have been a total of 154.8 patient-years of exposure in AD patients.
Of the 161 healthy subjects who received ELND005 in Phase 1 studies, 87 were between the ages of 18 and 54 years (inclusive) and 74 were between ages of 55 and 81 years (inclusive). The dose range was 70 to 7000 mg in single-dose studies and 200 to 3000 mg BID in multiple-dose studies for up to 10 days. Patients with AD were treated with 250 mg BID to 2000 mg BID.

[8] = system: Alzheimer transgenic mouse model; settings: cited from earlier work
[9] = nine phase 1 studies; cited from earlier work
[10] = system: mild and moderate AD patients; experiment: phase 2 study of scyllo-inositol 250 mg BID in mild and moderate AD patients over 78 weeks; assay type: in vivo, human
Text: The inclusion of mild AD patients with an MMSE score of 20 and 21 was sufficient to mask the efficacy observed in mild AD patients with an MMSE from 22-26.
Scyllo-inositol is a drug that, in oral form, crosses the blood-brain barrier to achieve low mM levels in the blood. […] See McLaurin, J. et. al., J Mol. Biol. (1998): 183-194. […] The population of AD patients in the study was mild to moderate Alzheimer's disease having MMSE of 16-26. […] See Salloway, et al. Neurology 2011; 77:1253-1262.
A randomized, double blind placebo-controlled study phase 2 study explored the safety and efficacy of 250 mg BID administered to mild and moderate AD patients over 78 weeks. One of the primary endpoints used to measure changes in cognition was the Neuropsychological Test Battery (NTB) as well as measuring the levels of biomarkers in the CSF such as Amyloid beta 42 and phosphorylated Tau. The primary analysis compared 250 mg BID […] and placebo (n=82) in mild to moderate patients, and an additional pre-specified analysis was performed in the placebo and treated mild AD patients. […] Similar trends were also observed in other cognition and function tests such CSR-SoB and ADCS-ADL.

[11] = scyllo-inositol levels in CSF of AD patients; assay type: in vivo, human; settings: 250 mg BID
[12] = cited from earlier work
[13] = system: glutathione reductase and superoxide desmutases; settings: periods of days to weeks; cited from earlier work
[14] = system: animals; settings: 20-40 mg/kg/day over 3 to 4 months; cited from earlier work
[15] = capsules or different food sources; cited from earlier work
[16] = system: transgenic AD mice; settings: cited from earlier work

T1 sequence (P05067 672-713 limits assumed): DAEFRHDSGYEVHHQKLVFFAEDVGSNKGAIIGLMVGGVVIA

## O[C@H]1[C@H](O)[C@@H](O)[C@H](O)[C@@H](O)[C@@H]1O [scyllo-inositol]
[1]; MMSE 23-26, 250 mg BID
  subgroup analysis versus placebo: did not achieve statistical significance
[1]; full analysis set, 250 mg BID, 78 weeks, MMSE 16-26
  primary endpoints NTB and/or ADCS-ADL versus placebo: no statistical significance
[1]; mild and moderate AD patients, overall population
  efficacy on NTB, CDR-SoB, ADCS-ADL and ADAS-Cog: failed to show efficacy
[1]; per-protocol sets, 250 mg BID, 78 weeks
  primary endpoints NTB and ADCS-ADL, preventing decline versus placebo: no statistically significant different
[2]
  concentration sufficient to prevent formation of oligomers and break down amyloid beta aggregates and fibrils: 2-5 ugms/ml
[3]
  dose safe with no observed pathologies: up to 2500 mg/kg/day
[4]
  amyloid beta binding to neurons and neurotoxicity: prevent amyloid beta binding to neurons and reduced neurotoxicity
[5]
  long term potentiation: restores long term potentiation
[6]; dog, in vivo, 12 months
  dose safe and no pathologies: 300 mg/kg/day
[6]; dogs, 2000 mg/kg/day for 12 months, skin inflammation, gingivitis and pneumonia
  adverse events: some mild adverse events
[7]
  dose considered safe for long-term use: 250 mg BID
[8]; 10 mg/kg and 30 mg/kg
  reduction of amyloid beta 42 in the brain: 20-30%
  reduction of number of plaques: 25-50%
[8]; oral treatment
  cognition in Morris Water maze test: comparable to normal animals
[9]
  blood brain barrier passage: crosses the blood brain barrier
  plasma levels versus dose: dose proportional increase
[10]; mild AD patients with MMSE score of 22-26
  efficacy on cognition and function by MMSE subgroup: more pronounced
[10]; mild AD patients, 250 mg BID
  NTB score: very strong signal in improvement
  parameters measured in the NTB that showed improvement: 7 of the 9
[10]; mild to moderate patient population, 250 mg BID
  changes in cognition: not statistically significant
[11]
  average scyllo-inositol levels in CSF: 15 µg/mL

## O=c1cc(-c2ccc(O)cc2)oc2cc(O)cc(O)c12 [apigenin, 4′,5,7-trihydroxyflavone]
[12]
  water solubility: reduced water solubility
[13]
  level of apigenin resulting in elevated glutathione reductase and superoxide desmutases: 3.5-4.5 mgs per day
[14]
  adverse events: No adverse events
[15]
  adverse events: No signs of adverse events
[16]; Transgenic AD mice, not observed with deleted Aquaporin 4 gene
  amyloid beta half life: significantly reduced
[16]; approximately
  efficacy dose observed in animal models: 20 to 40 mg/kg/day
[16]; mouse, in vivo
  increase of clearance of amyloid beta in the brain: 30-40%
[16]; transgenic AD mice
  aquaporin channels on perivascular astrocytes: increased the expression and localization
  cognition: reversed the loss in cognition to normal levels
[16]; transgenic mouse model
  reduction of amyloid beta 42 burden: 20-30%
